Where two headings read alike, the source gives them in different places.
Columns and labels:
CYP11B1 [1] = target: T1, CYP11B1 (Homo sapiens (Human), UniProt P15538); test: Inhibition test in V79 MZh11B1 cells (hamster fibroblasts expressing human CYP11B1); format: cell-based
CYP11B2 [2] = target: T2, CYP11B2 (Homo sapiens (Human), UniProt P19099); test: Inhibition test in V79 MZh11B2 cells (hamster fibroblasts expressing human CYP11B2); format: cell-based; settings: Table 1; deoxycorticosterone substrate 100 nM; read-out: IC50 value V79 11B2 hCYP11B2
CYP11B2 [3] = target: T2, CYP11B2; test: Screening test in transgenic fission yeast (S. pombe) expressing human CYP11B2; format: cell-based
human CYP17 = human CYP17 (Homo sapiens (Human), UniProt P05093); test: CYP17 inhibition, membrane fraction of E. coli expressing human CYP17; format: biochemical; settings: Table 1, progesterone 2.5 μM; for IC50: read-out: IC50 Human CYP17 (values in brackets); for inhibition at 2.5 µM: inhibitor 2.5 μM, read-out: % Inhib. Human CYP17
human placental CYP19 = human placental CYP19 (Homo sapiens (Human), UniProt P11511); test: CYP19 (aromatase) inhibition, human placental microsomes; format: biochemical; settings: Table 1, androstenedione 2.5 μM; for % Inhib. Human CYP19 (values in brackets): inhibitor concentration not given
[4] = system: steroid production in H295R cells; test: cells; format: cell-based, human; settings: for aldosterone secretion: within 6 hours; for inhibition at 2.5 µM / IC50: Homo sapiens, NCI-H295R; for inhibition at 2.5 µM: inhibitor 2.5 μM
CYP11B1 [5] = target: T1, CYP11B1; settings: NCI-H295R
CYP11B1 [6] = target: T1, CYP11B1; test: cell-based; settings: NCI-H295R, read-out: NCI-H295R CYP11B1 RSS % inhibition
CYP11B2 [7] = target: T2, CYP11B2; test: cell-based; settings: NCI-H295R
[8] = Table 1, deoxycorticosterone substrate 100 nM, read-out: IC50 value V79 11B1 hCYP11B1
[9] = Table 1, S. pombe cells expressing human CYP11B2, deoxycorticosterone 100 nM, inhibitor 500 nM, read-out: % Inhib. Human hCYP11B2
[10] = H295R, 6 h incubation, read-out: % inhibition of DHEA production
[11] = H295R, 6 h incubation, read-out: % inhibition of aldosterone production
[12] = H295R, 6 h incubation, read-out: % inhibition of androstendione production
[13] = H295R, 6 h incubation, read-out: % inhibition of cortisol production
[14] = read-out: NCI-H295R CYP11B2 B % inhibition
[15] = read-out: NCI-H295R CYP11B2 DOC % inhibition
[16] = read-out: IC50 in V79MZh 11B1 cells (CYP11B1 inhibition)

Chain of human placental CYP19 (P11511 whole entry): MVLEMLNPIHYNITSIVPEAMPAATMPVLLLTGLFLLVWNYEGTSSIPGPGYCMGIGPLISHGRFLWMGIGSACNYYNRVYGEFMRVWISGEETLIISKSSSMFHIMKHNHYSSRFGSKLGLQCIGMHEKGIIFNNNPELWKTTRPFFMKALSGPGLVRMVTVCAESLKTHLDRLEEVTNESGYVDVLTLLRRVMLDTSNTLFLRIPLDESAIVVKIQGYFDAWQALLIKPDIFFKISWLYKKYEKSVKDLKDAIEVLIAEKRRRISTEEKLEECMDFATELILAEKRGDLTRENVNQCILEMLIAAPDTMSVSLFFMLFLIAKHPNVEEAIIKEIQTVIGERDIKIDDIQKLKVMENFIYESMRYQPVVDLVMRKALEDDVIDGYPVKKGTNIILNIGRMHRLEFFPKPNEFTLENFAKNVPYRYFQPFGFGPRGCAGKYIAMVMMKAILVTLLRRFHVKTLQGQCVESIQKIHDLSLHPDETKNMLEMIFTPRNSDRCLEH
T2 sequence (P19099 25-503): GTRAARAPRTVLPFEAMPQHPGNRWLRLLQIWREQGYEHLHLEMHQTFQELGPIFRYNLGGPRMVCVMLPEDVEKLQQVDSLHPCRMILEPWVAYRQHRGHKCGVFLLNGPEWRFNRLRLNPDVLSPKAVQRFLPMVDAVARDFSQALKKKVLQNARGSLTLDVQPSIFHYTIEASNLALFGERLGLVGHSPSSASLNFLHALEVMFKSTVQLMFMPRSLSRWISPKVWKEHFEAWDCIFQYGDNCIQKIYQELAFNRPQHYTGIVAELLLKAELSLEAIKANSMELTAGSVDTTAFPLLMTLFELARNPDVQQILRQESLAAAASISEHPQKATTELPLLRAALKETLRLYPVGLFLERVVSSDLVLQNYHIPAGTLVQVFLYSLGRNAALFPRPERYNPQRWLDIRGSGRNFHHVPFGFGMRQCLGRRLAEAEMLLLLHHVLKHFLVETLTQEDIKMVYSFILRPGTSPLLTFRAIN
Chain of human CYP17 (P05093 whole entry): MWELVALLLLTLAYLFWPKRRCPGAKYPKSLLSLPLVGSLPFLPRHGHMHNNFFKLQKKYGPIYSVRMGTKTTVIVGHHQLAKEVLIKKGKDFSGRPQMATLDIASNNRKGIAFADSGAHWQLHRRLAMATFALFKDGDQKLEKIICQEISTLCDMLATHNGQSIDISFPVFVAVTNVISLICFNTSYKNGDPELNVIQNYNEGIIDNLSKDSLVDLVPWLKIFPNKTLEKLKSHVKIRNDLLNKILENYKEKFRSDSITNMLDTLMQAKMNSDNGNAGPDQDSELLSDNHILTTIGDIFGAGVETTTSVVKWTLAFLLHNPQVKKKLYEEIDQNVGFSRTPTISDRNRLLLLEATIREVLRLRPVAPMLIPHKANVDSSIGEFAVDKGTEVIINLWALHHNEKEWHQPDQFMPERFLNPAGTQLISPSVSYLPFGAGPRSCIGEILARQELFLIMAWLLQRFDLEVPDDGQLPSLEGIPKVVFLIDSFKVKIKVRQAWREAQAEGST
T1 sequence (P15538 25-503): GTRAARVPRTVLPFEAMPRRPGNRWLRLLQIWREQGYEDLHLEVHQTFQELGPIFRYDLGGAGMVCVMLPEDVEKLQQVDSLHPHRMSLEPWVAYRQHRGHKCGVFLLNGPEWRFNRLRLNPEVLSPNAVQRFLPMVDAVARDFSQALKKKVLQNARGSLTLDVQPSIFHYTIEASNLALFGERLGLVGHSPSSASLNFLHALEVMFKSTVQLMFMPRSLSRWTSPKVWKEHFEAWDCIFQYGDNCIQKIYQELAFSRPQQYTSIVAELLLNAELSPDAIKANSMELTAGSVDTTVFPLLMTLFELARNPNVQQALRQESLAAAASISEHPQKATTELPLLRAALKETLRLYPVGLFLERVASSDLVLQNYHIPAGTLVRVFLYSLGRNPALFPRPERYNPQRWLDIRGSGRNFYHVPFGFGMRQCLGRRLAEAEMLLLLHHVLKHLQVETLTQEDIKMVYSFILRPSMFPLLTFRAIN

SMILES	IC50 (CYP11B1 [1]; [8])	IC50 (CYP11B2 [2])	inhibition at 0.5 µM (CYP11B2 [3]; [9])	IC50 (human placental CYP19)	inhibition at 2.5 µM (human CYP17)	further results
COc1ccc2c(Cl)c(-c3cccnc3)ccc2c1Cl [Compound 12, 3-(1,5-Dichloro-6-methoxy-2-naphthyl)pyridine]	1540 nM	28 nM	82%	970 nM		IC50 (human CYP17): 233 nM
COc1ccc2cc(-c3cccnc3)ccc2c1 [Compound 2, 3-(6-Methoxy-2-naphthyl)pyridine]				586 nM		cortisol production compared with aldosterone production ([4]; H295R model): cortisol production is inhibited more strongly than the aldosterone production; androsterone production (so in the source) ([4]; H295R, 6 h): inhibited only to a low extent; aldosterone secretion ([4]; H295R): significant concentration-dependent decrease; inhibition at 2.5 µM [4, 10]: 84.5 ± 2%; inhibition at 2.5 µM [4, 11]: 56.4 ± 3.5%; inhibition at 2.5 µM [4, 12]: 84.6 ± 2%; inhibition at 2.5 µM [4, 13]: 78.6 ± 5.4%; IC50 ([4]; H295R, 6 h incubation, read-out: IC50 of DHEA production): < 1 nM; IC50 ([4]; H295R, 6 h incubation, read-out: IC50 of aldosterone production): 963 nM; IC50 ([4]; H295R, 6 h incubation, read-out: IC50 of androstendione production): < 1 nM; IC50 ([4]; H295R, 6 h incubation, read-out: IC50 of cortisol production): < 1 nM; influence on CYP11B1 in comparison with fadrozole (CYP11B1 [5]): clearly lower extent; inhibition at 2.5 µM (CYP11B1 [6]): 48.5 ± 2.9%; IC50 (human CYP17): 667 nM; inhibition at 2.5 µM (CYP11B2 [7]; [14]): 49.5 ± 2.4%; inhibition at 2.5 µM (CYP11B2 [7]; [15]): 81.4 ± 6.6%
COc1ccc2cc(-c3cncnc3)ccc2c1 [Compound 30, 5-(6-Methoxy-2-naphthyl)pyrimidine]			46%			
COc1ccc2cc(-c3cccnc3)ccc2c1Cl [Compound 9, 3-(5-Chloro-6-methoxy-2-naphthyl)pyridine]	569 nM	13 nM	86%	1800 nM	32%	
COc1ccc2ccc(-c3cccnc3)c(Cl)c2c1 [Compound 14, 3-(1-Chloro-7-methoxy-2-naphthyl)pyridine]	771 nM	29 nM	85%			IC50 (human CYP17): 27 nM; % Inhib. Human CYP19 (values in brackets) (human placental CYP19): [65] %
c1ccc2cc(-c3c[nH]cn3)ccc2c1 [Compound 27, 4(5)-(2-Naphthyl)-1H-imidazole]	206 nM					IC50 (CYP11B1 [1]; [16]): 206 nM; % Inhib. Human hCYP11B2 (CYP11B2 [3]; Table 1, S. pombe cells expressing human CYP11B2, deoxycorticosterone 100 nM, inhibitor 500 nM): 41%
CC(=O)N1CCN(c2ccc(OCC3COC(Cn4ccnc4)(c4ccc(Cl)cc4Cl)O3)cc2)CC1 (stereo not shown) [Ketoconazole, reference compound]						aldosterone secretion ([4]; H295R): significant concentration-dependent decrease; IC50 ([4]; 6 h, read-out: IC50 of DHEA production): 51.8 nM; IC50 ([4]; 6 h, read-out: IC50 of aldosterone production): 13100 nM; IC50 ([4]; 6 h, read-out: IC50 of androstendione production): 59.6 nM; IC50 ([4]; 6 h, read-out: IC50 of cortisol production): 155 nM; inhibition at 2.5 µM [4, 10]: 94.4 ± 0.6%; inhibition at 2.5 µM [4, 11]: 33.3 ± 3.3%; inhibition at 2.5 µM [4, 12]: 89.2 ± 1.2%; inhibition at 2.5 µM [4, 13]: 88.1 ± 1%
C1=C(n2ccnc2)CCc2ccccc21 [Compound 45, 1-(3,4-Dihydronaphthalene-2-yl)-1H-imidazole]						CYP11B2 inhibition in S. pombe (CYP11B2 [3]): very low; inhibition at 0.5 µM (CYP11B2 [3]; Table 2, S. pombe cells expressing human CYP11B2, deoxycorticosterone 100 nM, inhibitor 500 nM, read-out: % Inhibition Human hCYP11B2): 34%
COC(=O)c1ccc2cc(-c3cccnc3)ccc2c1 [Compound 16, Methyl-6-pyridin-3-yl-2-naphthoate]	10500 nM	73 nM	66%	1250 nM	12%	
COc1cc2ccccc2cc1-c1cccnc1 [Compound 15, 3-(3-Methoxy-2-naphthyl)pyridine]			38%			
CCOc1ccc2cc(-c3cccnc3)ccc2c1 [Compound 5, 3-(6-Ethoxy-2-naphthyl)pyridine]	883 nM	12 nM	86%	6640 nM	53%	
COc1cc2ccccc2cc1-n1ccnc1 [Compound 24, 1-(3-Methoxy-2-naphthyl)-1H-imidazole]	5020 nM	40 nM	86%	129 nM	4%	
COc1ccc2c(c1)CCC(n1ccnc1)=C2 [Compound 46, 1-(6-Methoxy-3,4-dihydronaphthalene-2-yl)-1H-imidazole]						IC50 (CYP11B1 [1]; [16]): 206 to 805 nM; IC50 (CYP11B1 [1]; read-out: IC50 value V79 11B1 hCY11B1): 763 nM; CYP11B2 inhibition in S. pombe (CYP11B2 [3]): very low; inhibition at 0.5 µM (CYP11B2 [3]; read-out: % Inhibition Human hCYP11B2): 35%
N#Cc1ccc2cc(-c3cccnc3)ccc2c1 [Compound 8, 6-Pyridin-3-yl-2-naphthonitrile]	691 nM	3 nM	98%			IC50 (human CYP17): 686 nM; % Inhib. Human CYP19 (values in brackets) (human placental CYP19): [44] %
c1cncc(-c2ccc3ccccc3c2)c1 [Compound 1, 3-(2-Naphthyl)pyridine]					40%	influence on CYP11B1 in comparison with fadrozole (CYP11B1 [5]): clearly lower extent; inhibition at 2.5 µM (CYP11B1 [6]): 43.4 ± 4.7%; inhibition at 2.5 µM (CYP11B2 [7]; [14]): 45.6 ± 2.2%; inhibition at 2.5 µM (CYP11B2 [7]; [15]): 82.9 ± 0.9%
c1ccc2cc(-n3ccnc3)ccc2c1 [Compound 23, 1-(2-Naphthyl)-1H-imidazole]	1050 nM	38 nM	80%		13%	

Now from value to compound, other results behind:

IC50 (CYP11B1 [1]; [8])	IC50 (CYP11B2 [2])	inhibition at 0.5 µM (CYP11B2 [3]; [9])	IC50 (human placental CYP19)	inhibition at 2.5 µM (human CYP17)	SMILES	further results
		53%			c1cncc(-c2ccc3ccccc3n2)c1 [Compound 20, 2-Pyridin-3-ylquinoline]	
805 nM		16%			c1ccc2cc(-c3cnco3)ccc2c1 [Compound 29, 5-(2-Naphthyl)-1,3-oxazole]	IC50 (CYP11B1 [1]; [16]): 206 to 805 nM; CYP11B2 inhibition in S. pombe (CYP11B2 [3]): very low
		40%			c1cncc(-c2cnc3ccccc3c2)c1 [Compound 19, 3-Pyridin-3-ylquinoline]	
		46%			COc1ccc2ccc(-c3cccnc3)cc2c1 [Compound 13, 3-(7-Methoxy-2-naphthyl)pyridine]	
1530 nM	33 nM	68%	9110 nM	38%	COc1ccc2cc(-c3cccnc3)ccc2c1Br [Compound 10, 3-(5-Bromo-6-methoxy-2-naphthyl)pyridine]	
899 nM	15 nM	85%		46%	Brc1ccc2cc(-c3cccnc3)ccc2c1 [Compound 4, 3-(6-Bromo-2-naphthyl)pyridine]	% Inhib. Human CYP19 (values in brackets) (human placental CYP19): [33] %
715 nM	23 nM	88%		65%	Oc1ccc2cc(-c3cccnc3)ccc2c1 [Compound 3, 6-Pyridin-3-yl-2-naphthol]	% Inhib. Human CYP19 (values in brackets) (human placental CYP19): [61] %

Source: US9271963B2, “Selective inhibitors of human corticosteroid synthases” (UNIVERSITAT DES SAARLANDES, priority 2005, dated 2016)
